We go through 25 compounds from patent US10053458B2, “Pyrimidine-2,4-diamine derivative and anticancer pharmaceutical composition comprising same as effective ingredient” (KOREA RESEARCH INSTITUTE OF CHEMICAL TECHNOLOGY, priority 2014, dated 2018).

Experiment [1] relates to H2228. As to the kind of experiment: Cancer cell proliferation inhibition (SRB/MTS), H2228. The following applies: Homo sapiens, NCI-H2228, 72 h, read-out: H2228 GI50.
Protocol: (§1) Cancer cell lines used in the experiments were all human-derived cancer cell lines, specifically H2228 and H3122, which are non-small cell lung cancer cell lines.
(§2) The cancer cell proliferation inhibition was measured using the MTS assay as follows. […] Each culture medium was placed in an incubator for 4 hours, taken out and left at room temperature for 10 minutes.
Experiment [2] relates to BaF3 EML4-ALK WT cells. Description: Cytotoxicity on BaF3 cell transfected with EML4-ALK WT (WST-1). The following applies: Ba/F3 EML4-ALK, 72 h, read-out: BaF3 EML4-ALK WT, IC50 of the cytotoxicity. (In general: Tetrazolium assays rely on reduction of a dye to a coloured formazan, in cell work by metabolically active cells.)
For experiment [3], the system named is H3122. Description: Cancer cell proliferation inhibition (SRB/MTS), H3122. The following applies: Homo sapiens, NCI-H3122, 72 h, read-out: H3122 GI50.
Protocol: as §1, §2

For orientation: GI50 means the concentration that inhibits growth by half. The IC50 is the concentration at which inhibition is half-maximal. In the case of `CC(C)COc1cc2c(cc1Nc1ncc(Cl)c(Nc3ccccc3S(=O)(=O)C(C)C)n1)CCN(C(=O)C(F)(F)F)C2` [Example 19, 1-(6-(5-chloro-4-(2-(isopropylsulfonyl)phenylamino)pyrimidin-2-yl)amino-7-isobutoxy-3,4-dihydroisoquinolin-2(1H)-yl)-2,2,2-trifluoroethane-1-one], the GI50 in experiment [1] and in experiment [3] was less than 50 nM each time. Moreover, the concentration for half-maximal inhibition (IC50) in experiment [2] was less than 50 nM.

As to `COc1cc2c(cc1Nc1ncc(Cl)c(Nc3ccccc3S(=O)(=O)C(C)C)n1)C1CNCCN1CC2(C)C` (stereo not drawn) [Example 86, 5-chloro-N4-(2-(isopropylsulfonyl)phenyl)-N2-(9-methoxy-7,7-dimethyl-1,3,4,6,7,11b-hexahydro-2H-pyrazino[2,1-a]isoquinolin-10-yl)pyrimidine-2,4-diamine], the concentration for 50% growth inhibition (GI50) in experiment [1] and in experiment [3] was less than 50 nM each time. Further, the concentration for half-maximal inhibition (IC50) in experiment [2] is less than 50 nM.

With `CC(C)Oc1cc2c(cc1Nc1ncc(Cl)c(Nc3ccccc3S(=O)(=O)C(C)C)n1)CNCC2(C)C` [Example 80, 5-chloro-N4-(2-(isopropylsulfonyl)phenyl)-N2-(6-isopropoxy-4,4-dimethyl-1,2,3,4-tetrahydroisoquinolin-7-yl)pyrimidine-2,4-diamine], the concentration for 50% growth inhibition (GI50) in experiment [1] and in experiment [3] was less than 50 nM in each case. In experiment [2], the half-maximal inhibitory concentration (IC50) was less than 50 nM.

As to `COc1cc2c(cc1Nc1ncc(Cl)c(Nc3ccccc3S(=O)(=O)C(C)C)n1)CN(C(=O)CN(C)C)CC2(C)C` [Example 94], the concentration for 50% growth inhibition (GI50) in experiment [1] and in experiment [3] was less than 50 nM throughout. Moreover, the 50% inhibitory concentration (IC50) in experiment [2] was less than 50 nM.

As for `COc1c(Nc2ncc(Cl)c(Nc3ccccc3S(=O)(=O)C(C)C)n2)cc2c(c1Br)C(C)(C)NCC2` [Example 89, 5-chloro-N4-(2-(isopropylsulfonyl)phenyl)-N2-(8-bromo-7-methoxy-1,1-dimethyl-1,2,3,4-tetrahydroisoquinolin-6-yl)pyrimidine-2,4-diamine], the GI50 in experiment [1] and in experiment [3] was less than 50 nM each time. Moreover, the IC50 in experiment [2] is less than 50 nM.

With `CC(C)Oc1cc2c(cc1Nc1ncc(Cl)c(Nc3ccccc3S(=O)(=O)C(C)C)n1)CCNC2C` (stereo not drawn) [Example 70, 5-chloro-N4-(2-(isopropylsulfonyl)phenyl)-N2-(7-isopropoxy-1-methyl-1,2,3,4-tetrahydroisoquinolin 6 yl)pyrimidine-2,4-diamine], the GI50 in experiment [1] and in experiment [3] was less than 50 nM in each case. For the same compound, the IC50 in experiment [2] is less than 50 nM.

With `CC(C)S(=O)(=O)c1ccccc1Nc1nc(Nc2cc3c(cc2OC(F)F)C(C)(C)NCC3)ncc1Cl` [Example 100, 5-chloro-N4-(2-(isopropylsulfonyl)phenyl)-N2-(7-difluoromethoxy-1,1-dimethyl-1,2,3,4-tetrahydroisoquinolin-6-yl)pyrimidine-2,4-diamine], the GI50 in experiment [1] and in experiment [3] was less than 50 nM in each case. The half-maximal inhibitory concentration (IC50) in experiment [2] is less than 50 nM.

As to `COc1cc2c(cc1Nc1ncc(Cl)c(Nc3ccccc3S(=O)(=O)C(C)C)n1)C(=O)NCC2` [Example 44], the GI50 in experiment [1] and in experiment [3] was less than 50 nM in each case. The IC50 in experiment [2] is less than 50 nM.

For `COc1cc2c(cc1Nc1ncc(Cl)c(Nc3ccccc3S(=O)(=O)C(C)C)n1)CNCC21CCCC1` [Example 83, 5-chloro-N4-(2-(isopropylsulfonyl)phenyl)-N2-(6-methoxy-2,3-dihydro-1H-spiro(cyclopentane-1,4-isoquinolin)-7-yl)pyrimidine-2,4-diamine], the GI50 in experiment [1] and in experiment [3] was less than 50 nM each time. Further, the half-maximal inhibitory concentration (IC50) in experiment [2] was less than 50 nM.

Consider `CC(C)Oc1cc2c(cc1Nc1ncc(Cl)c(Nc3ccccc3S(=O)(=O)C(C)C)n1)CCNC2(C)C` [Example 71, 5-chloro-N4-(2-(isopropylsulfonyl)phenyl)-N2-(7-isopropoxy-1,1-dimethyl-1,2,3,4-tetrahydroisoquinolin-6-yl)pyrimidine-2,4-diamine], for which the 50% growth inhibitory concentration (GI50) in experiment [1] and in experiment [3] was less than 50 nM in each case. For the same compound, the IC50 in experiment [2] was less than 50 nM.

Take `COc1cc2c(cc1Nc1ncc(Cl)c(Nc3ccccc3S(=O)(=O)C(C)C)n1)CNCC2(C)C` [Example 75, 5-chloro-N4-(2-(isopropylsulfonyl)phenyl)-N2-(6-methoxy-4,4-dimethyl-1,2,3,4-tetrahydroisoquinolin-7-yl)pyrimidine-2,4-diamine]: the 50% growth inhibitory concentration (GI50) in experiment [1] and in experiment [3] was less than 50 nM throughout. Also, in experiment [2], the IC50 is less than 50 nM.

`COc1cc2c(cc1Nc1ncc(Cl)c(Nc3ccccc3S(=O)(=O)C(C)C)n1)CCN(Cc1ccccc1)C2(C)C` [Example 31, 5-chloro-N4-(2-(isopropylsulfonyl)phenyl)-N2-(2-benzyl-7-methoxy-1,1-dimethyl-1,2,3,4-tetrahydroisoquinolin-6-yl)pyrimidine-2,4-diamine]: the concentration for 50% growth inhibition (GI50) in experiment [1] and in experiment [3] was less than 50 nM in each case. Besides, in experiment [2], the 50% inhibitory concentration (IC50) was less than 50 nM.

Turning to `COc1cc2c(cc1Nc1ncc(Cl)c(Nc3ccccc3S(=O)(=O)C(C)C)n1)C1(CCCCC1)CNC2` [Example 16, 5-chloro-N4-(2-(isopropylsulfonyl)phenyl)-N2-(7-methoxy-2,3-dihydro-1H-spiro[cyclohexane-1,4-isoquinoline]-6-yl)pyrimidine-2,4-diamine], the concentration for 50% growth inhibition (GI50) in experiment [1] and in experiment [3] was less than 50 nM each time. In addition, the 50% inhibitory concentration (IC50) in experiment [2] is less than 50 nM.

For `COc1cc2c(c(Br)c1Nc1ncc(Cl)c(Nc3ccccc3S(=O)(=O)C(C)C)n1)CCNC2(C)C` [Example 87, 5-chloro-N4-(2-(isopropylsulfonyl)phenyl)-N2-(5-bromo-7-methoxy-1,1-dimethyl-1,2,3,4-tetrahydroisoquinolin-6-yl)pyrimidine-2,4-diamine], the GI50 in experiment [1] and in experiment [3] was less than 50 nM throughout. Further, the half-maximal inhibitory concentration (IC50) in experiment [2] is less than 50 nM.

For `COc1c(Nc2ncc(Cl)c(Nc3ccccc3S(=O)(=O)C(C)C)n2)cc2c(c1Cl)C(C)(C)NCC2` [Example 90, 5-chloro-N4-(2-(isopropylsulfonyl)phenyl)-N2-(8-chloro-7-methoxy-1,1-dimethyl-1,2,3,4-tetrahydroisoquinolin-6-yl)pyrimidine-2,4-diamine], the GI50 in experiment [1] and in experiment [3] was less than 50 nM in each case. Further, in experiment [2], the IC50 was less than 50 nM.

With `COc1cc2c(cc1Nc1ncc(Cl)c(Nc3ccccc3S(=O)(=O)C(C)C)n1)CNC2` [Example 1, 5-chloro-N4-(2-(isopropylsulfonyl)phenyl)-N2-(6-methoxyisoindolin-5-yl)pyrimidine-2,4-diamine], the GI50 in experiment [1] is 15 nM; in experiment [3], less than 50 nM. For the same compound, the concentration for half-maximal inhibition (IC50) in experiment [2] is less than 50 nM.

Consider `COc1cc2c(cc1Nc1ncc(Cl)c(Nc3ccccc3S(=O)(=O)C(C)C)n1)CCN(C1CCNCC1)C2` [Example 24], for which the GI50 in experiment [1] and in experiment [3] was less than 50 nM throughout. Also, the IC50 in experiment [2] is less than 50 nM.

In the case of `COc1cc2c(cc1Nc1ncc(Cl)c(Nc3ccccc3S(=O)(=O)C(C)C)n1)CNC2(C)C` [Example 106, 5-chloro-N4-(2-(isopropylsulfonyl)phenyl)-N2-(6-methoxy-1,1-dimethylisoindolin-5-yl)pyrimidine-2,4-diamine], the concentration for 50% growth inhibition (GI50) in experiment [1] and in experiment [3] was less than 50 nM each time. In experiment [2], the half-inhibitory concentration (IC50) is less than 50 nM.

Take `CCN1CCc2cc(Nc3ncc(Cl)c(Nc4ccccc4S(=O)(=O)C(C)C)n3)c(OC)cc2C1(C)C` [Example 77, 5-chloro-N4-(2-(isopropylsulfonyl)phenyl)-N2-(2-ethyl-7-methoxy-1,1-dimethyl-1,2,3,4-tetrahydroisoquinolin-6-yl)pyrimidine-2,4-diamine]: the GI50 in experiment [1] and in experiment [3] was less than 50 nM throughout. Further, the IC50 in experiment [2] was less than 50 nM.

As to `COc1cc2c(cc1Nc1ncc(Cl)c(Nc3ccccc3S(=O)(=O)C(C)C)n1)C(C)(C)CN(C(=O)C(F)(F)F)C2` [Example 11, 1-(6-(5-chloro-4-(2-(isopropylsulfonyl)phenylamino)pyrimidin-2-yl)amino-7-methoxy-4,4-dimethyl-3,4-dihydroisoquinolin-2(1H)-yl)-2,2,2-trifluoroethane-1-one], the GI50 in experiment [1] and in experiment [3] was less than 50 nM throughout. For the same compound, the concentration for half-maximal inhibition (IC50) in experiment [2] is less than 50 nM.

Take `CCN1CCc2cc(Nc3ncc(Cl)c(Nc4ccccc4S(=O)(=O)C(C)C)n3)c(OC(C)C)cc2C1(C)C` [Example 79, 5-chloro-N4-(2-(isopropylsulfonyl)phenyl)-N2-(2-ethyl-7-isopropoxy-1,1-dimethyl-1,2,3,4-tetrahydroisoquinolin-6-yl)pyrimidine-2,4-diamine]: the GI50 in experiment [1] and in experiment [3] was less than 50 nM in each case. In addition, in experiment [2], the IC50 was less than 50 nM.

With `COc1cc2c(cc1Nc1ncc(Cl)c(Nc3ccccc3S(=O)(=O)C(C)C)n1)CCNC2C(C)C` (stereo not drawn) [Example 28], the concentration for 50% growth inhibition (GI50) was less than 50 nM in experiment [1] and 21 nM in experiment [3]. Further, the IC50 in experiment [2] stood at 13 nM.

Regarding `COc1cc2c(cc1Nc1ncc(Cl)c(Nc3ccccc3S(=O)(=O)C(C)C)n1)CC1(CC1)N(C(=O)C(F)(F)F)C2C` (stereo not drawn) [Example 29], the concentration for 50% growth inhibition (GI50) in experiment [1] and in experiment [3] was less than 50 nM each time. For the same compound, in experiment [2], the IC50 was less than 50 nM.

`CCN1Cc2cc(Nc3ncc(Cl)c(Nc4ccccc4S(=O)(=O)C(C)C)n3)c(OC(C)C)cc2C(C)(C)C1` [Example 82, 5-chloro-N4-(2-(isopropylsulfonyl)phenyl)-N2-(2-ethyl-6-isopropoxy-4,4-dimethyl-1,2,3,4-tetrahydroisoquinolin-7-yl)pyrimidine-2,4-diamine]: the GI50 in experiment [1] and in experiment [3] was less than 50 nM in each case. Further, in experiment [2], the IC50 is less than 50 nM.

On to `COc1cc2c(cc1Nc1ncc(Cl)c(Nc3ccccc3S(=O)(=O)C(C)C)n1)CN(C)CC2(C)C` [Example 91, 5-chloro-N4-(2-(isopropylsulfonyl)phenyl)-N2-(6-methoxy-2,4,4-trimethyl-1,2,3,4-tetrahydroisoquinolin-7-yl)pyrimidine-2,4-diamine], for which the GI50 in experiment [1] and in experiment [3] was less than 50 nM each time. Further, in experiment [2], the IC50 is less than 50 nM.
